# US11046949B2, “Method and system for microbial lysis using periodates” (priority 2014, dated 2021)
# Several values for one entry are separate records, joined by “and”; a condition that tells them apart may be missing. Identical values can stand only once. Like-named read-outs stand apart in the source and are kept apart here.
# Tests used:
# [1] = tested on: Bacillus subtilis vegetative cells; test: DNA release from B. subtilis by per-halogenated and oxidizing compounds, Acid-Hydrolysis HPLC Method; format: cell-based; conditions: 70° C. 20 minutes; for % DNA release / AUC, Ade: 15 mM compound in BD buffer, samples 1-3; for % DNA release (Average) / AUC, Ade (Average): 15 mM compound, average of 3
# [2] = tested on: C. botulinum Type B spores; format: cell-based, Clostridium botulinum; conditions: Post-Periodate: BD2 buffer, 30 mM NPI, 70° C. 20 minutes, FIG. 16
# P. aeruginosa [3] = format: cell-based, Pseudomonas aeruginosa; conditions: periodate +, BD2 buffer
# [4] = tested on: Mycobacterium smegmatis lysate proteins; test: M. smegmatis lysate treated with periodate, SDS-PAGE; conditions: 7.5 and 15 mM periodate, 70° C. 15 minutes, FIG. 13
# [5] = tested on: attenuated MTB H37Ra (aMTB) spiked in sputum; test: DNA isolated from aMTB-spiked sputum using swabs and periodate, RD4 rtPCR
# S. aureus [6] = format: cell-based, Staphylococcus aureus; conditions: periodate +, BD2 buffer
# F. philomiragia [7] = format: cell-based, Francisella philomiragia; conditions: BD2 buffer
# M. catarrhalis [8] = format: cell-based, Moraxella catarrhalis; conditions: periodate +, BD2 buffer
# [9] = tested on: attenuated M. tuberculosis (aMTB) spiked in saliva; format: cell-based, Mycobacterium tuberculosis
# Y. enterocolitica [10] = format: cell-based, Yersinia enterocolitica; conditions: periodate +, BD2 buffer
# K. pneumonia [11] = format: cell-based, Klebsiella pneumonia; conditions: BD2 buffer
# B. thuringiensis [12] = format: cell-based, Bacillus thuringiensis; conditions: periodate +, BD2 buffer
# K. pneumonia [13] = format: cell-based, Klebsiella pneumonia; conditions: periodate +, BD2 buffer
# M. catarrhalis [14] = format: cell-based, Moraxella catarrhalis; conditions: BD2 buffer
# S. aureus [15] = format: cell-based, Staphylococcus aureus; conditions: BD2 buffer
# [16] = molecular target: pancreatic ribonuclease A (RNase A) (Bos taurus, UniProt P61823); test: Inhibition of RNase A by pre-treatment with periodate, HeLa RNA integrity on agarose gel; conditions: RNase A pre-incubated with 15 mM periodate, 70° C. 15 minutes, FIG. 14
# pancreatic ribonuclease A (RNase A), sequence (P61823 27-150): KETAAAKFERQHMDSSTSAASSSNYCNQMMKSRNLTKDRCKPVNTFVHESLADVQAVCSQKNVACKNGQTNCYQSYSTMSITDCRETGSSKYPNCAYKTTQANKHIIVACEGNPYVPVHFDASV
# Mycobacterium smegmatis = test: NPI-mediated release of DNA from M. smegmatis as a function of pH, Acid-Extraction HPLC Method
# C. albicans [17] = format: cell-based, Candida albicans; conditions: BD2 buffer
# M. smegmatis [18] = format: cell-based, Mycobacterium smegmatis; conditions: periodate +, BD2 buffer
# P. aeruginosa [19] = format: cell-based, Pseudomonas aeruginosa; conditions: BD2 buffer
# C. difficile spores = format: cell-based, Clostridium difficile
# [20] = molecular target: Pancreatic Ribonuclease A (Bos taurus, UniProt P61823); test: Pure pancreatic ribonuclease A treated with periodate, SDS-PAGE; conditions: 15 mM periodate, 70° C. 15 minutes, FIG. 12
# Pancreatic Ribonuclease A, sequence (P61823 27-150): as above
# C. albicans [21] = conditions: periodate +, BD2 buffer
# B. thuringiensis [22] = format: cell-based, Bacillus thuringiensis; conditions: BD2 buffer
# F. philomiragia [23] = format: cell-based, Francisella philomiragia; conditions: periodate +, BD2 buffer
# M. smegmatis [24] = format: cell-based, Mycobacterium smegmatis; conditions: BD2 buffer
# [25] = tested on: B. anthracis Sterne Strain spores; format: cell-based, Bacillus anthracis; conditions: Post-Periodate: BD2 buffer, 30 mM NPI, 70° C. 20 minutes, FIG. 15
# [26] = tested on: M. tuberculosis in TB-positive sputum; test: TB-positive sputum, qPCR targeting RD4 MTBC region of difference; format: cell-based, Mycobacterium tuberculosis
# Y. enterocolitica [27] = format: cell-based, Yersinia enterocolitica; conditions: BD2 buffer
# Mycobacteria = test: Release of DNA from Mycobacteria by solvents, detergents, formic acid, borate; format: cell-based, Mycobacterium; conditions: solvents to strip waxy cell wall component
# Description: The hardy cell wall of Mycobacterium consists of a thick, waxy, hydrophobic, mycolate layer and a peptidoglycan layer held together by polysaccharide. […] Similarly, various detergents (e.g., SDS), formic acid, and borate were tested at elevated temperatures.
smiles,measurement,setting,value
"[Na+].[O-][Cl+3]([O-])([O-])[O-] [Perchlorate, sodium perchlorate, reference compound]",% DNA release,[1],6.2% and 6.7% and 6.4%
same,"AUC, Ade",[1],79 and 85 and 81
same,% DNA release (Average),[1],6.4%
same,"AUC, Ade (Average)",[1],81.7
"[O-][I+3]([O-])([O-])O [Periodate, sodium (meta)periodate]",spore viability by culture,[2],no C. botulinum or C. difficile spores were viable by culture
same,Ct values,P. aeruginosa [3]; 35° C. 20 minutes,10.8
same,Ct values,P. aeruginosa [3]; 70° C. 20 minutes,7.8
same,Ct values,P. aeruginosa [3]; 80° C. 20 minutes,8.8
same,protein bands in cell-free lysate,[4],some protein bands selectively decreased or disappeared altogether
same,Periodate efficiency (Ct Swab 6 (−) Ct average),"[5]; 1:10 dilution of DNA, Copan",3.78
same,Periodate efficiency (Ct Swab 6 (−) Ct average),"[5]; 1:10 dilution of DNA, Puritan",5.72
same,"Ct value (1:10 dilution of DNA) Copan, Average",[5]; (+) periodate,27.55
same,"Ct value (1:10 dilution of DNA) Puritan, Average",[5]; (+) periodate,27.11
same,"Ct value (neat DNA) Copan, Average",[5]; (+) periodate,24.02
same,"Ct value (neat DNA) Puritan, Average",[5]; (+) periodate,23.69
same,Ct value (1:10 dilution of DNA) Copan,"[5]; (+) periodate 30 mM, Swabs 1-5",26.49 and 28.11 and 29.12 and 33.99 and 26.47
same,Ct value (1:10 dilution of DNA) Puritan,"[5]; (+) periodate 30 mM, Swabs 1-5",26.24 and 27.74 and 26.60 and 27.29 and 27.67
same,Ct value (neat DNA) Copan,"[5]; (+) periodate 30 mM, Swabs 1-5",22.99 and 24.60 and 25.55 and 30 .09 and 22.93
same,Ct value (neat DNA) Puritan,"[5]; (+) periodate 30 mM, Swabs 1-5",22.67 and 24.19 and 23.28 and 23.93 and 24.36
same,Periodate efficiency (Ct Swab 6 (−) Ct average),"[5]; neat DNA, Copan",3.73
same,Periodate efficiency (Ct Swab 6 (−) Ct average),"[5]; neat DNA, Puritan",3.93
same,increase in the amount of aMTB-specific DNA recovered per swab,[5]; periodate included vs not included,> 10 fold
same,Ct values,S. aureus [6]; 35° C. 20 minutes,15.5
same,Ct values,S. aureus [6]; 70° C. 20 minutes,13.7
same,Ct values,S. aureus [6]; 80° C. 20 minutes,15.0
same,% DNA Released,F. philomiragia [7]; 35° C. 20 minutes,65.3%
same,% DNA Released,F. philomiragia [7]; 70° C. 20 minutes,89.4%
same,% DNA Released,F. philomiragia [7]; 80° C. 20 minutes,92.0%
same,Ct values,M. catarrhalis [8]; 35° C. 20 minutes,16.3
same,Ct values,M. catarrhalis [8]; 70° C. 20 minutes,12.7
same,Ct values,M. catarrhalis [8]; 80° C. 20 minutes,10.8
same,Growth (up to 42 days),[9],NEG
same,Time to Positive,[9],>42 days
same,growth on LJ medium,[9],no growth of any microorganism was observed
same,Ct values,Y. enterocolitica [10]; 35° C. 20 minutes,15.5
same,Ct values,Y. enterocolitica [10]; 70° C. 20 minutes,12.0
same,Ct values,Y. enterocolitica [10]; 80° C. 20 minutes,11.4
same,% DNA Released,K. pneumonia [11]; 35° C. 20 minutes,49.0%
same,% DNA Released,K. pneumonia [11]; 70° C. 20 minutes,119.2%
same,% DNA Released,K. pneumonia [11]; 80° C. 20 minutes,124.4%
same,Ct values,B. thuringiensis [12]; 35° C. 20 minutes,15.5
same,Ct values,B. thuringiensis [12]; 70° C. 20 minutes,10.3
same,Ct values,B. thuringiensis [12]; 80° C. 20 minutes,10.8
same,Ct values,K. pneumonia [13]; 35° C. 20 minutes,24.3
same,Ct values,K. pneumonia [13]; 70° C. 20 minutes,9.3
same,Ct values,K. pneumonia [13]; 80° C. 20 minutes,9.6
same,% DNA Released,M. catarrhalis [14]; 35° C. 20 minutes,77.1%
same,% DNA Released,M. catarrhalis [14]; 70° C. 20 minutes,143.6%
same,% DNA Released,M. catarrhalis [14]; 80° C. 20 minutes,140.5%
same,% DNA Released,S. aureus [15]; 35° C. 20 minutes,18.4%
same,% DNA Released,S. aureus [15]; 70° C. 20 minutes,24.8%
same,% DNA Released,S. aureus [15]; 80° C. 20 minutes,26.7%
same,RNase A activity on HeLa ribosomal RNA,[16],ribosomal RNA was no longer degraded by RNase A
same,percentage of total DNA released,"Mycobacterium smegmatis; 6 mM NPI in PAB buffer solutions pH 3.7-9.4, 70° C. 20 minutes",37.4-59.4%
same,increase of percentage of total DNA released vs no NPI,"Mycobacterium smegmatis; 6 mM NPI, 70° C. 20 minutes",approximately 9 fold
same,% DNA Released,C. albicans [17]; 35° C. 20 minutes,105.4%
same,% DNA Released,C. albicans [17]; 70° C. 20 minutes,155.3%
same,% DNA Released,C. albicans [17]; 80° C. 20 minutes,156.4%
same,Ct values,M. smegmatis [18]; 35° C. 20 minutes,22.8
same,Ct values,M. smegmatis [18]; 70° C. 20 minutes,18.1
same,Ct values,M. smegmatis [18]; 80° C. 20 minutes,17.9
same,% DNA Released,P. aeruginosa [19]; 35° C. 20 minutes,38.6%
same,% DNA Released,P. aeruginosa [19]; 70° C. 20 minutes,117.8%
same,% DNA Released,P. aeruginosa [19]; 80° C. 20 minutes,98.2%
same,spore viability by culture,C. difficile spores,no C. botulinum or C. difficile spores were viable by culture
same,quantity of full-length purified RNase protein,[20],decreased
same,% DNA release,[1],46.6% and 48.0% and 37.4%
same,"AUC, Ade",[1],594 and 611 and 476
same,% DNA release (Average),[1],44.0%
same,"AUC, Ade (Average)",[1],560.3
same,% DNA release (Average),[1]; listed as sodium (meta)periodate,44%
same,Ct values,C. albicans [21]; 35° C. 20 minutes,27.1
same,Ct values,C. albicans [21]; 70° C. 20 minutes,15.2
same,Ct values,C. albicans [21]; 80° C. 20 minutes,15.7
same,% DNA Released,B. thuringiensis [22]; 35° C. 20 minutes,42.1%
same,% DNA Released,B. thuringiensis [22]; 70° C. 20 minutes,103.5%
same,% DNA Released,B. thuringiensis [22]; 80° C. 20 minutes,107.7%
same,Ct values,F. philomiragia [23]; 35° C. 20 minutes,15.3
same,Ct values,F. philomiragia [23]; 70° C. 20 minutes,15.5
same,Ct values,F. philomiragia [23]; 80° C. 20 minutes,16.0
same,% DNA Released,M. smegmatis [24]; 35° C. 20 minutes,49.7%
same,% DNA Released,M. smegmatis [24]; 70° C. 20 minutes,85.2%
same,% DNA Released,M. smegmatis [24]; 80° C. 20 minutes,80.6%
same,spore viability by culture,[25],dramatically reduced the viability
same,Real-time PCR Ct value (in duplicate),[26],32/32 and 41/33 and 23/23 and 33/33 and 19/19 and 24/25
same,% DNA Released,Y. enterocolitica [27]; 35° C. 20 minutes,52.1%
same,% DNA Released,Y. enterocolitica [27]; 70° C. 20 minutes,80.8%
same,% DNA Released,Y. enterocolitica [27]; 80° C. 20 minutes,89.5%
"O=S(=O)([O-])OOS(=O)(=O)[O-].[Na+].[Na+] [Persulfate, sodium persulfate]",% DNA release,[1],15.9% and 14.7% and 14.3%
same,"AUC, Ade",[1],202 and 187 and 182
same,% DNA release (Average),[1],15.0%
same,"AUC, Ade (Average)",[1],190.3
same,% DNA release (Average),[1]; listed as sodium persulfate,15%
"O.O.O.O.[Na+].[O-]B1OO1 [Perborate, sodium perborate tetrahydrate, reference compound]",% DNA release,[1],5.5% and 6.3% and 6.4%
same,"AUC, Ade",[1],70 and 80 and 82
same,% DNA release (Average),[1],6.1%
same,"AUC, Ade (Average)",[1],77.3
C[S+](C)[O-] [DMSO],release of DNA,Mycobacteria,no increased release of DNA was observed
